According to ChEMBL document CHEMBL4507299, “Data for DCP probe PF-04554878” (2021):

What was measured:
D(1A) dopamine receptor = D(1A) dopamine receptor (Homo sapiens, UniProt P21728); test: GPCRScan assay: inhibition of D1; design: radioligand conc. used [nm] 0.6 – 1.3, parental cells HEKT
Adenosine receptor A3 = Adenosine receptor A3 (Homo sapiens, UniProt P0DMS8); test: Cerep profiling assay (ADORA3); design: compound concentration 10 uM
[1] = biological target: Vascular endothelial growth factor receptor 1 (Homo sapiens, UniProt P17948); test: Cerep profiling assay (FLT1); design: compound concentration 10 uM
[2] = biological target: Tyrosine-protein kinase Lyn (Homo sapiens, UniProt P07948); test: Cerep profiling assay (LYN); design: compound concentration 10 uM
[3] = biological target: Cyclin-dependent kinase 2/cyclin A (Homo sapiens) (UniProt P24941+P20248+P78396); test: (§1) CDK2/cyclinA Invitrogen kinase activity assay; type: protein-complex assay; settings: Compound concentration 1.0 uM
[4] = biological target: Cyclin-dependent kinase 2/cyclin A (Homo sapiens, UniProt P24941); test: as §1; type: protein-complex assay
[5] = biological target: CDK6/cyclin D3 (Homo sapiens) (UniProt P30281+Q00534); test: CDK6/cyclinD3 Invitrogen kinase activity assay; type: protein-complex assay; settings: Compound concentration 1.0 uM
[6] = biological target: Serine/threonine-protein kinase Chk2 (Homo sapiens) (UniProt O96017); test: CHK2 Invitrogen kinase activity assay; settings: Compound concentration 1.0 uM
Chain of Serine/threonine-protein kinase Chk2 (Homo sapiens) (O96017 whole entry): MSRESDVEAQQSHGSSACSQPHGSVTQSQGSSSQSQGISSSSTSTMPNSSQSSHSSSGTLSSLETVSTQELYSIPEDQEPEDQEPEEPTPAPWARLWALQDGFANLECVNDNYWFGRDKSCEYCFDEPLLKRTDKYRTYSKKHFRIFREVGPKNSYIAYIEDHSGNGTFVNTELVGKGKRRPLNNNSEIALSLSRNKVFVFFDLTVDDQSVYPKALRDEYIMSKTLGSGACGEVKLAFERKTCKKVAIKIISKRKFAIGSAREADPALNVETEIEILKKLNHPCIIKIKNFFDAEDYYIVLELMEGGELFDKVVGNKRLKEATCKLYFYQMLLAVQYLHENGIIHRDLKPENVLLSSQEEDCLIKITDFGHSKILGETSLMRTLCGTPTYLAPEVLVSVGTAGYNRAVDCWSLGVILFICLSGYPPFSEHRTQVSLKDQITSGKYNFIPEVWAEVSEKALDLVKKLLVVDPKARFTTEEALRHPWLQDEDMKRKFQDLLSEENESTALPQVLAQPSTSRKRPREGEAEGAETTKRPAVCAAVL

[7] = biological target: Casein kinase II subunit alpha (Homo sapiens) (UniProt P68400); test: CK2 Invitrogen kinase activity assay; settings: Compound concentration 1.0 uM
Chain of Casein kinase II subunit alpha (Homo sapiens) (P68400 whole entry, looked up, canonical isoform): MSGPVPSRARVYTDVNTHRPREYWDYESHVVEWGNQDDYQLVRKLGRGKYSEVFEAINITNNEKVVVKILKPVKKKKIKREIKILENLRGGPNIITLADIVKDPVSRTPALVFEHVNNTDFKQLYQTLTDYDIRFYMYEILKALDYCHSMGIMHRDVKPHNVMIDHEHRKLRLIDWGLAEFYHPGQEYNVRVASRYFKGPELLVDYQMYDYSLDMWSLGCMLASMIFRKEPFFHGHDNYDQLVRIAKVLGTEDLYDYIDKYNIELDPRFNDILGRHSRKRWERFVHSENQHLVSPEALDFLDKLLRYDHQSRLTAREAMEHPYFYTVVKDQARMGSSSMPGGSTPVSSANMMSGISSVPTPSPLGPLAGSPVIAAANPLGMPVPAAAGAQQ

[8] = biological target: Casein kinase I isoform delta (Homo sapiens) (UniProt P48730); test: CKLdelta Invitrogen kinase activity assay; settings: Compound concentration 1.0 uM
Chain of Casein kinase I isoform delta (Homo sapiens) (P48730 whole entry, looked up, canonical isoform): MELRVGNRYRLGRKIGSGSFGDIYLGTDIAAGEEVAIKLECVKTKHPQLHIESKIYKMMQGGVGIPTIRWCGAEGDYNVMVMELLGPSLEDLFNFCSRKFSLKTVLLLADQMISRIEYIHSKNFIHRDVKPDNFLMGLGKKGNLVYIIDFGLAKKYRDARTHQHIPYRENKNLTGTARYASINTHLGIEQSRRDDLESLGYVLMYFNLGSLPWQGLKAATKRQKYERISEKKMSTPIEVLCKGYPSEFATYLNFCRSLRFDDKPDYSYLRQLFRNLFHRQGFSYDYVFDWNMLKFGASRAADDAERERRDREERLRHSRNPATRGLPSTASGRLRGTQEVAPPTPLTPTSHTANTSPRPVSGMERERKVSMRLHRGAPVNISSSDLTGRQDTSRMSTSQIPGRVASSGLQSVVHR

[9] = biological target: Epidermal growth factor receptor (Homo sapiens) (UniProt P00533); test: EGFR Invitrogen kinase activity assay; settings: Compound concentration 1.0 uM
Chain of Epidermal growth factor receptor (Homo sapiens) (P00533 whole entry): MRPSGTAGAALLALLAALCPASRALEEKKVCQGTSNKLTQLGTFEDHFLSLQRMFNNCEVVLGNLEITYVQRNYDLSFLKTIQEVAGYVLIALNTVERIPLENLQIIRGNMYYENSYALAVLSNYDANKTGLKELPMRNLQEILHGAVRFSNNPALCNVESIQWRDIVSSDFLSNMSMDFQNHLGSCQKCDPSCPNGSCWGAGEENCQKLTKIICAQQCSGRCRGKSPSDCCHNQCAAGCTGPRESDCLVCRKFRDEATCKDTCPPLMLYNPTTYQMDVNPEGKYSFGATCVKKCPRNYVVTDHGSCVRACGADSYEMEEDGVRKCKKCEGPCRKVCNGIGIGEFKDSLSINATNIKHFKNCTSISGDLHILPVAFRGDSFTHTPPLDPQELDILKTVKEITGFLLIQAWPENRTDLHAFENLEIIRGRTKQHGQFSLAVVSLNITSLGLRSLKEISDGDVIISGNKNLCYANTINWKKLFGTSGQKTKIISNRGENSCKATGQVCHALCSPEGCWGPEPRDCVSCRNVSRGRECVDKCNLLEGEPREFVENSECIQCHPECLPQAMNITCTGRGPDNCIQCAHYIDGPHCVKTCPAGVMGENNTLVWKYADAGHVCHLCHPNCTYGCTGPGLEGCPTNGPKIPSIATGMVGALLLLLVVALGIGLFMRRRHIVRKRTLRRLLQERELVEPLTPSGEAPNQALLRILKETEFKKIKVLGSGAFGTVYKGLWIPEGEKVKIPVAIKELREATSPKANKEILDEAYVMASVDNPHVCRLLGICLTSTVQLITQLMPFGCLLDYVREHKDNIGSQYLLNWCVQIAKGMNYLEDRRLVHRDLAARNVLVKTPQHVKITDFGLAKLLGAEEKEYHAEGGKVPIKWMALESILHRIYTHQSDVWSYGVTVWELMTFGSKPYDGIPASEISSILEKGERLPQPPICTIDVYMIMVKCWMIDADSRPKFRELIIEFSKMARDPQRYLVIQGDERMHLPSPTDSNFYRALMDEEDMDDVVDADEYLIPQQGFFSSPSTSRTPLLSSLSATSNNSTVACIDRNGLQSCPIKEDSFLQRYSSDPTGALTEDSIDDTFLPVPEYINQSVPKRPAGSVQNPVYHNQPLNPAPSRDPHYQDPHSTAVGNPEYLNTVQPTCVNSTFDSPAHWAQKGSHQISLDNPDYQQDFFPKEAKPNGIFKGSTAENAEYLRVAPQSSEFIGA

[10] = biological target: Serine/threonine-protein kinase MARK1 (Homo sapiens, UniProt Q9P0L2); test: MARK1 Invitrogen kinase activity assay
[11] = biological target: Serine/threonine-protein kinase 26 (Homo sapiens) (UniProt Q9P289); test: MASK Invitrogen kinase activity assay; settings: Compound concentration 1.0 uM
[12] = biological target: NEK kinase (Homo sapiens) (UniProt P51955+Q9HC98+Q8TDX7+Q6P3R8+Q8TD19+Q8NG66+P51956+P51957+Q96PY6+Q86SG6+Q6ZWH5); test: NEK Invitrogen kinase activity assay; type: protein assay; settings: Compound concentration 1.0 uM
[13] = system: Ribosomal protein S6 kinase beta-1 (Homo sapiens), P23443 [UNDEFINED MUTATION]; test: S6K T389D D3E Invitrogen kinase activity assay; settings: Compound concentration 1.0 uM
[14] = biological target: T1, Serine/threonine-protein kinase Sgk1 (Homo sapiens) (UniProt O00141); test: SGK Invitrogen kinase activity assay; settings: Compound concentration 1.0 uM
T1 sequence (whole entry): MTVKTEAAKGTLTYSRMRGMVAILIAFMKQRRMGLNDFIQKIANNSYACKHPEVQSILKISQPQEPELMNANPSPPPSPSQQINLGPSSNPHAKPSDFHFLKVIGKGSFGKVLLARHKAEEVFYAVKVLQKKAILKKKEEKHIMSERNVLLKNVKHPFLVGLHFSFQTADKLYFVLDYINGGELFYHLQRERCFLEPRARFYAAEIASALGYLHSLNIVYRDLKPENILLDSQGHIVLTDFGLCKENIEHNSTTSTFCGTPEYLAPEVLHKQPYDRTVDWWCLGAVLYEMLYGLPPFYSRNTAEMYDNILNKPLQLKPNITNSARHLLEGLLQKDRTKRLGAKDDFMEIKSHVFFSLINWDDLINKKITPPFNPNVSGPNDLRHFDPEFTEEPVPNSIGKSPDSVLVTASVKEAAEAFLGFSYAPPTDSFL

[15] = biological target: Vascular endothelial growth factor receptor 2 (Homo sapiens) (UniProt P35968); test: VEGFR2/Flk1 Invitrogen kinase activity assay; settings: Compound concentration 1.0 uM
Chain of Vascular endothelial growth factor receptor 2 (Homo sapiens) (P35968 whole entry): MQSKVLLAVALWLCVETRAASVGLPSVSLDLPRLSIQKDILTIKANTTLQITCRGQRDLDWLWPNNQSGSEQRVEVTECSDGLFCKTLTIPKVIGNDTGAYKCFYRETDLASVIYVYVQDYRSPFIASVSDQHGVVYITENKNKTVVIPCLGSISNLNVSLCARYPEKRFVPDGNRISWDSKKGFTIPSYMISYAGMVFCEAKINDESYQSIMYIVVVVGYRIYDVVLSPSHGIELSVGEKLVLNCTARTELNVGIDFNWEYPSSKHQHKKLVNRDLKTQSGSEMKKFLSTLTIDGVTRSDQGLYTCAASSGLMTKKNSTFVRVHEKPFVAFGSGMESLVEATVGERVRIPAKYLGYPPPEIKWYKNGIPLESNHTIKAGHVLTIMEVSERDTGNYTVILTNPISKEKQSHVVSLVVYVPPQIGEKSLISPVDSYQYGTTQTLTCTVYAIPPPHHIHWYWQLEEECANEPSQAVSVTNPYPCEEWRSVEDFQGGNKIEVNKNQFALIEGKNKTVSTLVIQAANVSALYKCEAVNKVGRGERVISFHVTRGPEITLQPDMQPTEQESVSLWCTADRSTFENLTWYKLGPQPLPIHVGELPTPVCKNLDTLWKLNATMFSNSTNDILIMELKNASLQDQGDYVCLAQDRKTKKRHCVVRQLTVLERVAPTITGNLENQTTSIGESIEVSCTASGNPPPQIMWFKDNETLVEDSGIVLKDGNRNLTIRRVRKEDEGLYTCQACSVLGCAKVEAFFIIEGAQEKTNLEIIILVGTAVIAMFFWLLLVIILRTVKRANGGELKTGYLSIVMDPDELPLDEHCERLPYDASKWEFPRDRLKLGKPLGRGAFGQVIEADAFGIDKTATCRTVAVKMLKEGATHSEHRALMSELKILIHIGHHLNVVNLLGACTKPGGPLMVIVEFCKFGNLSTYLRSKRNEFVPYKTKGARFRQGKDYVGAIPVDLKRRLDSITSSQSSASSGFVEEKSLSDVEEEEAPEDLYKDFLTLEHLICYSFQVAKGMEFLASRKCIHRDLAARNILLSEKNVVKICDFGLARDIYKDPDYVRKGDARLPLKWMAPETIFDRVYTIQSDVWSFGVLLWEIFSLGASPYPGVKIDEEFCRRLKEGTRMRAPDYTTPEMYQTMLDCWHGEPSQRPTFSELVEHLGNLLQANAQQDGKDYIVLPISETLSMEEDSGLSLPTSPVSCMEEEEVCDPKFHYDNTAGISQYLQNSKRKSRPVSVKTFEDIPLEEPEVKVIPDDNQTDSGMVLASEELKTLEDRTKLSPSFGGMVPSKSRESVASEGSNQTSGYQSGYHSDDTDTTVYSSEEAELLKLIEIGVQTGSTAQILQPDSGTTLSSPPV

[16] = biological target: Kappa-type opioid receptor (Homo sapiens) (UniProt P41145); settings: Compound concentration 10.0 uM
[17] = biological target: T2, Tyrosine-protein kinase JAK3 (Homo sapiens) (UniProt P52333); settings: Compound concentration 1.0 uM
T2 sequence (whole entry): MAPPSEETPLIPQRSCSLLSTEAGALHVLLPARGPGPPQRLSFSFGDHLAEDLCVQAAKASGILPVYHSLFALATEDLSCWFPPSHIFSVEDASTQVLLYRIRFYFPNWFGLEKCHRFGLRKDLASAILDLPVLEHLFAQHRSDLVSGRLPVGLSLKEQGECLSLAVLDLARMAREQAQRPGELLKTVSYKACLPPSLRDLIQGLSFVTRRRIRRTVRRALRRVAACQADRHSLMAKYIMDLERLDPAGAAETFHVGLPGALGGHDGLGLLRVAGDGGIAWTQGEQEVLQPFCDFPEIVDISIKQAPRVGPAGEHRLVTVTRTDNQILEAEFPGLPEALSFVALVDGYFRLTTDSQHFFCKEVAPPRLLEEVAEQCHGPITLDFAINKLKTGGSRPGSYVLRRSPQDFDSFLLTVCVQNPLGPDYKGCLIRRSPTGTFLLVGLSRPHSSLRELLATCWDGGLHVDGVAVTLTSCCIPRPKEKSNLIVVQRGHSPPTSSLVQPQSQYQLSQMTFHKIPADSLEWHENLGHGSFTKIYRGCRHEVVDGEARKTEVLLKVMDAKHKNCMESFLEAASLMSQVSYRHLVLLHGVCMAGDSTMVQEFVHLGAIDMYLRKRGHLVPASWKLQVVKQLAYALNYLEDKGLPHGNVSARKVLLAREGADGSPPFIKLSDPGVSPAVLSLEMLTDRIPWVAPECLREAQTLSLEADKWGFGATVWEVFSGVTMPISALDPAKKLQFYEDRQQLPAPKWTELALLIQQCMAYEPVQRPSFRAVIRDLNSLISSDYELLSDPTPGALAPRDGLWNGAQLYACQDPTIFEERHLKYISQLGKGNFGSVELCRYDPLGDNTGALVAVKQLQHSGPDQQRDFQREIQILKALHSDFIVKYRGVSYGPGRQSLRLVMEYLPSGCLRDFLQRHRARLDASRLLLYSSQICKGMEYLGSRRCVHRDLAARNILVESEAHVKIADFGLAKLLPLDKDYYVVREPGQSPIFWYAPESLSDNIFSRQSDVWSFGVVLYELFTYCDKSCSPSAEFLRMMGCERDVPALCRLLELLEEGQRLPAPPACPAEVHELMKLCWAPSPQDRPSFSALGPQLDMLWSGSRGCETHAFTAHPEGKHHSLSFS

[18] = biological target: 3-phosphoinositide-dependent protein kinase 1 (Homo sapiens) (UniProt O15530); test: PDK1 Invitrogen kinase activity assay; settings: Compound concentration 1.0 uM
Chain of 3-phosphoinositide-dependent protein kinase 1 (Homo sapiens) (O15530 whole entry, looked up): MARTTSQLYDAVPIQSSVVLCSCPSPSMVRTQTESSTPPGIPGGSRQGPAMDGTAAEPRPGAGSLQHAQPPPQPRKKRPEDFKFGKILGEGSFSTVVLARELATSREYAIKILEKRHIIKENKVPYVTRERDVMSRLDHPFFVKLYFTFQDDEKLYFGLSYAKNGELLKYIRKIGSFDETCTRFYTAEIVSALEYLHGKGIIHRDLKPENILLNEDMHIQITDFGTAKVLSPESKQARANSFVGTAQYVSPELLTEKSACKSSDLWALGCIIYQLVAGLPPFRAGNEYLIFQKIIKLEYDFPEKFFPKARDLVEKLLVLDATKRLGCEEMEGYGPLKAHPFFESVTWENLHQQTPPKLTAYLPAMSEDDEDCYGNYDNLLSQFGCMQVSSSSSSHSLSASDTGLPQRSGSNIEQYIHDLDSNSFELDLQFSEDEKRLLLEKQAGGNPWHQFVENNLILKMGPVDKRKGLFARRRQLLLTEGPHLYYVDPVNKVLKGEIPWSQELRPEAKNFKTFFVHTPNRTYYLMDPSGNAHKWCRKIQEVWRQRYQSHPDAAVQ

[19] = GPCRScan assay: inhibition of GABA/PBR; design: species or system Rattus norvegicus; radioligand conc. used [nm] 0.3 – 2.0, parental cells brain tissue
[20] = biological target: Muscarinic acetylcholine receptor M4 (Homo sapiens) (UniProt P08173); settings: Compound concentration 10.0 uM

Chain of D(1A) dopamine receptor (P21728 whole entry): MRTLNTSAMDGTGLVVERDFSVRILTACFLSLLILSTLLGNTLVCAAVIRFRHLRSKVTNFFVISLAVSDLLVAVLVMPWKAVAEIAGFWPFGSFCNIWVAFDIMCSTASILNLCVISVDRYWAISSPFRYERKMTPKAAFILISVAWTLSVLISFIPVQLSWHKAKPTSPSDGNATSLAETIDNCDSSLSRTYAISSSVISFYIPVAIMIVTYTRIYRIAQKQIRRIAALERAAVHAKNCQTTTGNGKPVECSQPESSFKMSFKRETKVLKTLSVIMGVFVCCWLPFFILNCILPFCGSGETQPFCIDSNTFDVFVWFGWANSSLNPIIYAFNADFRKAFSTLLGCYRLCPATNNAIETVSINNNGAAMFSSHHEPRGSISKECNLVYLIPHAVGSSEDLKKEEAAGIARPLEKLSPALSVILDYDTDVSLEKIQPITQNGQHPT

**Q.** For `CNC(=O)c1ccc(Nc2ncc(C(F)(F)F)c(NCc3nccnc3N(C)S(C)(=O)=O)n2)cc1` [DEFACTINIB], which Ki (D(1A) dopamine receptor) is on record?
**A.** Its Ki is 10000 nM.

**Q.** And the Ki (Adenosine receptor A3)?
**A.** Its Ki is 27 nM.

**Q.** What about the IC50 [1] of the same compound?
**A.** The IC50 was 2500 nM (not active).

**Q.** What about the IC50 [2] of the same compound?
**A.** The IC50 was 1100 nM (not active).

**Q.** And the inhibition [3]?
**A.** The inhibition was 72%.

**Q.** And the IC50 [4]?
**A.** The IC50 was 344 nM.

**Q.** And the inhibition [5]?
**A.** Its inhibition is 13%.

**Q.** What about the inhibition [6] of the same compound?
**A.** Its inhibition is 28%.

**Q.** What about the inhibition [7] of the same compound?
**A.** The inhibition was 43%.

**Q.** What about the inhibition [8] of the same compound?
**A.** Its inhibition is 27%.

**Q.** And the inhibition [9]?
**A.** Its inhibition is 13%.

**Q.** What about the IC50 [10] of the same compound?
**A.** Its IC50 is 448 nM.

**Q.** What about the inhibition ([10]; Compound concentration 1.0 uM) of the same compound?
**A.** The inhibition was 81%.

**Q.** What about the inhibition [11] of the same compound?
**A.** The inhibition was 46%.

**Q.** And the inhibition [12]?
**A.** The inhibition was 12%.

**Q.** What about the inhibition [13] of the same compound?
**A.** The inhibition was 18%.

**Q.** And the inhibition [14]?
**A.** Its inhibition is 30%.

**Q.** What about the inhibition [15] of the same compound?
**A.** Its inhibition is 68%.

**Q.** What about the inhibition [16] of the same compound?
**A.** Its inhibition is 10.8%.

**Q.** What about the inhibition [17] of the same compound?
**A.** The inhibition was 94%.

**Q.** And the inhibition [18]?
**A.** Its inhibition is 25%.

**Q.** With `CN(c1ccnc(CNc2nc(Nc3ccc4c(c3)CC(=O)N4)ncc2C(F)(F)F)n1)S(C)(=O)=O` [PF-00911705] as the compound, how does the Ki [19] read?
**A.** Its Ki is 1480 nM.

**Q.** What about the pKi [19] of the same compound?
**A.** The pKi was 5.83.

**Q.** What about the inhibition [20] of the same compound?
**A.** The inhibition was 8.94%.
